Data: patent US20160220630A1, “AGONISTS OF GUANYLATE CYCLASE USEFUL FOR THE TREATMENT OF OPIOID INDUCED DYSFUNCTIONS” (priority 2013, published 2016)
“Also recorded” adds a separate entry of the source. Positions of bridges follow the written chain, without caps; N, C: chain ends. Non-standard residues stand in square brackets, D forms with d. Residues, ends and D or L forms follow the SMILES beside them.

How the values were obtained:
T84 cells = assay: Short circuit current (Isc) in Ussing chamber across T84 cells monolayer
[1] = system: female Sprague-Dawley rats; assay: GI transit (charcoal meal) after single oral SP-333 in opioid naïve rats; type: in vivo, rat
Description: FIGS. 7A-B is a series of graphs showing that oral treatment with SP-333 increases GI transit in rats. […] Panel A is a bar graph showing that SP-333 increases GI transit by 5.6%, 13%, and 23% at 0.05, 0.5, and 5 mg/kg, respectively in opioid naïve animals. Panel B is a distribution graph showing the data of each individual animal.
(§1) Effect of SP-333 on opioid-induced GI transit delay in rats: The ability of opioids to delay GI transit in rats was tested by either administering 0 (vehicle) 0.25, 1 and 2.5 mg/kg of morphine or 0 (vehicle), 0.25, 2.5 and 5 mg/kg of methadone (1.5 ml/kg dose volume) by IP injection. Water served as vehicle control. Ten minutes later, a 2 mL charcoal meal consisting of 10% activated charcoal (Sigma-Aldrich, St. Louis, Mo.) and 10% gum Arabic (Sigma-Aldrich, St. Louis, Mo.) in water was administered via oral gavage. Rats were euthanized 10 min after the charcoal meal via IP injection of 150 mg/kg Beuthanasia-D solution (sodium pentobarbital, 390 mg/mL). The small intestine was removed and the total length from the pyloric sphincter to the ileocecal junction was recorded, as well as the distance travelled by the leading edge of the charcoal. Intestinal transit was determined by calculating the ratio (expressed as a percentage) of the distance between the pyloric sphincter and the leading edge of the charcoal to the distance between the pyloric sphincter and the ileocecal junction.

[2] = system: female Sprague-Dawley rats; assay: Reversal of morphine-induced delayed GI transit by oral SP-333; type: in vivo, rat
Description: as §1
To evaluate the ability of SP-333 to reverse morphine induced delayed GI transit, animals were administered 2.5 mg/kg of morphine by IP injection followed immediately by oral gavage of 0 (vehicle), 0.5, 2.5, 5 and 50 mg/kg of SP-333 (1.5 ml/kg dose volume). Water served as vehicle control. Charcoal meal was administered ten minutes later and animals were euthanized ten minutes after the charcoal meal and intestinal transit was calculated as described above.

[3] = system: female Sprague-Dawley rats; assay: Reversal of methadone-induced delayed GI transit by oral SP-333; type: in vivo, rat
Description: as §1
To evaluate the ability of SP-333 to reverse methadone induced delayed GI transit, animals were administered 2.5 mg/kg of methadone by IP injection. Ten minutes later, an oral gavage of 0 (vehicle), 0.1, 0.5, 2.5, 5 and 50 mg/kg of SP-333 (1.5 ml/kg dose volume) was administered followed immediately by a 2 mL oral gavage of the charcoal meal. Ten minutes after the charcoal meal, animals were euthanized and intestinal transit was calculated as described above.

[4] = system: female Sprague-Dawley CD rats; assay: GI transit delay induced by repeated methadone administration; type: in vivo, rat; details: for GI transit after repeated methadone dosing (words): repeated daily IP methadone (5 then 2.5 mg/kg)
Description: The ability of SP-333 to alleviate GI transit delay induced by repeated methadone administration was also evaluated in the similar manner. Female Sprague-Dawley CD rats 7 to 8 weeks of age (n=7/group) received via IP injection 16 doses of methadone (once daily; 7 doses @ 5 mg/kg and 9 doses @ 2.5 mg/kg). Ten minutes following each methadone dose, each group received an oral gavage of vehicle, 2.5, and 5 mg/kg of SP-333. At the end of the dosing regimen, animals were fasted overnight and GI transit was evaluated as described above.

[5] = system: female Sprague-Dawley CD rats; assay: Methadone-induced constipation (fecal pellet output); type: in vivo, rat
Description: Effect of SP-333 on methadone-induced constipation in rats: To identify the methadone dose that induces constipation in rats, female Sprague-Dawley CD rats 7 to 8 weeks of age (n=6/group) were administered 0 (vehicle), 2.5, 5, and 7.5 mg/kg of methadone (1.5 ml/kg dose volume) by IP injection once a day for 5 days. Fecal pellets were collected at 4 h intervals during the light cycle and average number of pellets was recorded for each group during the course of the study following daily dose administrations of methadone.
To evaluate the ability of SP-333 to relieve methadone-induced constipation, female Sprague-Dawley CD rats 7 to 8 weeks of age (n=7/group) were administered 5 mg/kg of methadone (or vehicle) each day for 7 days via IP injection to induce constipation. Ten minutes following the IP dose each day, an oral gavage of 2.5, and 5 mg/kg of SP-333 or vehicle (buffer) was administered. Fecal pellets were collected at 4 h intervals during the light cycle and average number of pellets recorded for each group during the course of the study following daily administration of vehicle, methadone or combination of methadone and SP-333.

rat jejunum = assay: Short circuit current (Isc) in Ussing chamber across rat jejunum tissue; details: for inhibition of SP-333-stimulated Isc: inhibitor pretreatment 5 min, 1 μM SP-333
[6] = system: female Sprague-Dawley rats; assay: Opioid-induced GI transit delay after single IP opioid dose (charcoal meal); type: in vivo, rat
Description: Animals: All study procedures were conducted under a study outline approved by the Institutional Animal Care and Use Committee of MB Research Labs (Spinnerstown, Pa.) or Lampire Biological Laboratories (Pipersville, Pa.). Seven to eight week old female Sprague-Dawley rats [Crl:CD(SD)], weighing between ˜180-210 grams, were obtained from Charles River Laboratories and allowed to acclimate for a week. Animals were maintained on a 12 hour light-dark cycle. For intestinal tissue collection and evaluation of GI transit, rats were fasted for at least 18 hours before the experiment, with free access to water.
as §1

[7] = 5 μM morphine apical 5 min, then 1 μM SP-333
[8] = 5 μM methadone apical 5 min, then 1 μM SP-333

SMILES: COC(=O)[C@@]1(OC)C[C@H]2O[C@]1(C)n1c3ccccc3c3c4c(c5c6ccccc6n2c5c31)C(=O)N(C)C4 [PKG-II inhibitor]
- suppression of relative SP-333-stimulated Isc (T84 cells; PKG-II inhibitor 4 μM, 1 μM SP-333): approximately 35%

SMILES: CC(C)C[C@@H]1NC(=O)[C@H](CCC(=O)O)NC(=O)[C@@H](NC(=O)[C@H](CCC(=O)O)NC(=O)[C@H](CC(=O)O)NC(=O)[C@H](N)CC(N)=O)CSSC[C@@H]2NC(=O)[C@H](C)NC(=O)[C@H](C(C)C)NC(=O)[C@H](CC(N)=O)NC(=O)[C@H](C(C)C)NC(=O)[C@H](CSSC[C@@H](C(=O)N[C@H](CC(C)C)C(=O)O)NC(=O)CNC(=O)[C@H]([C@@H](C)O)NC2=O)NC1=O [SP-333, dAsn^1-Asp^2-Glu^3-Cys^4-Glu^5-Leu^6-Cys^7-Val^8-Asn^9-Val^10-Ala^11-Cys^12-Thr^13-Gly^14-Cys^15-dLeu^16] (H-[dN]DECELCVNVACTGC[dL]-OH; disulfide 4-12, 7-15)
- increase in GI (small intestinal) transit compared to vehicle controls ([1]; SP-333 0.05 mg/kg single oral gavage): 5.6%
- increase in GI (small intestinal) transit compared to vehicle controls ([1]; SP-333 0.5 mg/kg single oral gavage): 13%
- increase in GI (small intestinal) transit compared to vehicle controls ([1]; SP-333 5 mg/kg single oral gavage): 23%
- GI transit in morphine-treated rats ([2]; morphine 2.5 mg/kg IP + SP-333 0.5 mg/kg oral): 27%
- GI transit in morphine-treated rats ([2]; morphine 2.5 mg/kg IP + SP-333 2.5 mg/kg oral): 37%
- GI transit in morphine-treated rats ([2]; morphine 2.5 mg/kg IP + SP-333 5 mg/kg oral): 46%
- GI transit in morphine-treated rats ([2]; morphine 2.5 mg/kg IP + SP-333 50 mg/kg oral): 48%
- SP-333 dose sufficient to relieve the effect of morphine on GI transit ([2]; morphine 2.5 mg/kg IP, SP-333 oral): 5 mg/kg
- delay in GI transit caused by morphine ([2]; orally administered SP-333): completely restored the delay in GI transit
- GI transit in methadone-treated rats ([3]; methadone 2.5 mg/kg IP + SP-333 0.5 mg/kg oral): 40%
- GI transit in methadone-treated rats ([3]; methadone 2.5 mg/kg IP + SP-333 2.5 mg/kg oral): 39%
- GI transit in methadone-treated rats ([3]; methadone 2.5 mg/kg IP + SP-333 5 mg/kg oral): 44%
- GI transit in methadone-treated rats ([3]; methadone 2.5 mg/kg IP + SP-333 50 mg/kg oral): 52%
- SP-333 dose sufficient to relieve the effect of methadone on GI transit ([3]; methadone 2.5 mg/kg IP, SP-333 oral): 5 mg/kg
- delay in GI transit caused by methadone ([3]; orally administered SP-333): completely restored the delay in GI transit
- GI transit delay after repeated methadone dosing ([4]; repeated daily IP methadone (5 then 2.5 mg/kg) + SP-333 2.5 and 5 mg/kg oral): normalized GI transit; also recorded: relieved the GI-transit delay; also recorded: statistically significant improvement in GI transit delay
- fecal pellet count compared to the methadone dosed group without SP-333 ([5]; methadone 5 mg/kg IP + SP-333 2.5 mg/kg oral, once daily 7 days): threefold increase; also recorded: significantly relieved methadone-induced constipation
- fecal output / average number of pellets ([5]; methadone 5 mg/kg IP + SP-333 2.5 and 5 mg/kg oral, once daily 7 days): partially restored fecal output; also recorded: higher compared to the methadone dosed group
- increase in Isc (chloride currents) (rat jejunum; SP-333 0.01-10 μM apical): concentration-dependent increase in Isc approaching saturation at 10 μM
- increase in Isc (chloride currents) (T84 cells; SP-333 0.01-10 μM apical): concentration-dependent increase in Isc approaching saturation at 10 μM

SMILES: CN1CC[C@]23c4c5ccc(O)c4O[C@H]2[C@@H](O)C=C[C@H]3[C@H]1C5 [morphine]
- GI transit slowed by, compared to vehicle controls ([6]; morphine 2.5 mg/kg IP single dose): 56%
- effect of morphine on GI transit ([6]; morphine IP 0.25, 1.0 and 2.5 mg/kg): significantly reduced GI transit
- effect of morphine pre-treatment on SP-333-stimulated Isc (rat jejunum; [7]): negligible effect; also recorded: not adversely affected
- effect of morphine pre-treatment on SP-333-stimulated Isc (T84 cells; [7]): negligible effect; also recorded: not adversely affected

SMILES: [Cl][Cd][Cl] [CdCl2]
- inhibition of SP-333-stimulated Isc (rat jejunum): minimal effect
- decrease in SP-333-stimulated Isc (T84 cells; CdCl2 300 μM or mPKI 3.2 μM, 1 μM SP-333): No appreciable decrease; also recorded: minimal effect

SMILES: CCC(=O)C(CC(C)N(C)C)(c1ccccc1)c1ccccc1 (stereo not shown) [methadone]
- methadone dose sufficient to significantly reduce GI transit ([6]; IP): 2.5 mg/kg
- GI transit delay vs corresponding vehicle controls ([6]; methadone 2.5 mg/kg IP): 49%
- effect of methadone on GI transit ([6]; methadone 0.25, 2.5 and 5 mg/kg IP): significantly reduced GI transit; also recorded: statistically significant reduction in GI transit
- GI transit after repeated methadone dosing (words) [4]: significant delay in GI transit
- GI transit after repeated methadone dosing (words) ([4]; listed as Methadone): significant reduction in GI transit
- effect of methadone on fecal output ([5]; daily IP methadone 2.5, 5 and 7.5 mg/kg): drastically reduced daily fecal output; also recorded: statistically significant reduction in fecal output
- effect of methadone pre-treatment on SP-333-stimulated Isc (rat jejunum; [8]): no effect; also recorded: not adversely affected
- effect of methadone pre-treatment on SP-333-stimulated Isc (T84 cells; [8]): no effect; also recorded: not adversely affected

SMILES: O=C(O)c1ccc(/C=C2\SC(=S)N(c3cccc(C(F)(F)F)c3)C2=O)cc1 [CFTRinh172]
- inhibition of SP-333-stimulated Isc (rat jejunum): less compared to that detected in T84 cells
- suppression in SP-333-stimulated Isc (T84 cells; 10 μM CFTRinh172, compared with 1 μM SP-333 alone): 80%
